Reference: patent US20100256179A1, “COMBINATION THERAPY FOR PAIN IN PAINFUL DIABETIC NEUROPATHY” (UCB PHARMA GMBH, priority 2004, published 2010)

Assays:
[1] = system: formalin-induced flinching and licking response of the affected paw; assay: rat formalin paw test (late phase); assay type: in vivo
Method: Rats were given an intraplantar injection of 5% formalin (50 μl) into the posterior left paw. This treatment induces a recognizable flinching and licking response of the affected paw in control animals. The number of flinches was counted for 15 minutes, beginning 20 minutes after injection of formalin. The time spent licking the affected paw was also recorded.
Male Rj: Wistar (Han) rats, 10 per group, weighing 100-130 g at the beginning of the experiments were studied per group. The test was performed blind.

[2] = Trough and peak plasma concentrations of unchanged lacosamide in the trial; assay type: in vivo, human; details: 400 mg/day, Maintenance Phase
[3] = Safety and tolerability of lacosamide in the trial; assay type: in vivo, human
Description: Safety variables evaluated included adverse events, clinical laboratory assessments, electrocardiograms (ECGs), vital sign measurements, and physical and neurological examinations.

[4] = system: pain in subjects with diabetic distal sensory polyneuropathy; assay: Randomized, double-blind placebo controlled trial of lacosamide in painful diabetic neuropathy: efficacy; assay type: in vivo, human
Method: A randomized, double-blind placebo controlled trial to investigate safety and efficacy of lacosamide in painful diabetic neuropathy was conducted.
Baseline data were collected during the last week of a 4-week Run-In Phase to ensure subject eligibility. […] The highest attained dose was maintained for 4 weeks during the Maintenance Phase, after which subjects entered the Taper Phase and were tapered off of study medication for 1 week. The Taper Phase was followed by a 2-week Safety Follow-Up Phase.
Subjects were male or female, age 18 or older. Subjects had clinically diagnosed pain attributed to diabetic distal sensory polyneuropathy for 1-5 years and a diagnosis of diabetes mellitus (Type I or Type II). Subjects had at least moderate pain (mean pain intensity during the Baseline week ≧4 out of 10 on an 11-point Likert scale) which had been stable for 4 weeks prior to randomization. Furthermore, subjects had good or fair diabetic control (glycosylated hemoglobin (HbA1C) <10%), which was optimized (best effort to achieve best control) for at least three months prior to Visit 1. Test product, dose and mode of administration, batch number
After completion of screening assessments, subjects began a 4-week Run-In Phase. […] Following the titration scheme, their dosage was escalated by 100 mg in weekly increments to a maximum dose of 400 mg/day (provided tolerability was satisfactory).
If subjects reached total or sufficient pain relief with lower doses than 400 mg/day, after careful consideration by the investigator, they were allowed to stay on the attained dose level in the Maintenance Phase. If adverse events were intolerable during the Titration Phase or the first week of the Maintenance Phase (only for those subjects reaching the 400 mg/day level), subjects could be down-titrated, once, to the next lowest dose. Subjects were treated at 400 mg/day (or highest dose achieved) for 4 weeks in the Maintenance Phase.
The primary variable was the within-subject change in average daily pain score from the Baseline week to Maintenance Phase, using an 11-point Likert scale (0-10). […]

[5] = Example 4, duloxetine 8 mg/kg i.p.
[6] = Example 2, gabapentin 50 mg/kg i.p.
[7] = Example 2, gabapentin 100 mg/kg i.p.
[8] = Example 2, lacosamide 20 mg/kg i.p.
[9] = Example 3, lacosamide 10 mg/kg i.p.
[10] = Example 3, lacosamide 20 mg/kg i.p.
[11] = Example 4, lacosamide 10 mg/kg i.p.
[12] = Example 5, lacosamide 10 mg/kg i.p.
[13] = Example 5, lacosamide 20 mg/kg i.p.
[14] = Example 5, lacosamide alone at 10 mg/kg
[15] = of 60 subjects in the lacosamide group
[16] = Example 5, memantine 4 mg/kg i.p.
[17] = Example 5, memantine 8 mg/kg i.p.
[18] = Example 3, morphine 2 mg/kg i.p.
[19] = Example 3, morphine 4 mg/kg i.p.

CNCC[C@H](Oc1cccc2ccccc12)c1cccs1 [Duloxetine]
effects on number of flinches and time spent licking ([1]; Example 4, duloxetine 8 mg/kg alone): no clear effects | Licking time % change (a): compared with vehicle control [1, 5]: −26% (a) | Licking time (seconds) mean ± SEM [1, 5]: 195.5 ± 45.0 s | No. of flinches % change (a): compared with vehicle control [1, 5]: −1% (a) | No. of flinches mean ± SEM [1, 5]: 149.6 ± 27.3

NCC1(CC(=O)O)CCCCC1 [Gabapentin]
Licking time % change (a): compared with vehicle control [1, 6]: −28% (a) | Licking time (seconds) mean ± SEM [1, 6]: 161.0 ± 27.3 s | No. of flinches % change (a): compared with vehicle control [1, 6]: −24% (a) | No. of flinches mean ± SEM [1, 6]: 97.4 ± 23.8 | Licking time % change (a): compared with vehicle control [1, 7]: −60% (a) | Licking time (seconds) mean ± SEM [1, 7]: 90.0 ± 22.5 s | No. of flinches % change (a): compared with vehicle control [1, 7]: −31% (a) | No. of flinches mean ± SEM [1, 7]: 88.1 ± 19.4 | decrease in time spent licking ([1]; Example 2, gabapentin alone at 50 mg/kg): 28% | decrease in number of flinches as compared with vehicle controls ([1]; Example 2, gabapentin alone at 50 mg/kg, non-significant): 24% | decrease in number of flinches as compared with vehicle controls ([1]; Example 2, gabapentin alone at 100 mg/kg, non-significant): 31% | decrease in time spent licking ([1]; Example 2, gabapentin alone at 100 mg/kg, p<0.05): 60%

COC[C@@H](NC(C)=O)C(=O)NCc1ccccc1 [Lacosamide, (R)-2-acetamido-N-benzyl-3-methoxypropionamide]
Licking time % change (a): compared with vehicle control [1, 8]: −34% (a) | Licking time (seconds) mean ± SEM [1, 8]: 146.9 ± 23.8 s | No. of flinches % change (a): compared with vehicle control [1, 8]: −33% (a) | No. of flinches mean ± SEM [1, 8]: 85.7 ± 14.3 | decrease in number of flinches as compared with vehicle controls ([1]; Example 2, lacosamide alone at 20 mg/kg): 33% | decrease in time spent licking as compared with vehicle controls ([1]; Example 2, lacosamide alone at 20 mg/kg, p=0.0962): 34% | Licking time % change (a): compared with vehicle control [1, 9]: −28% (a) | Licking time (seconds) mean ± SEM [1, 9]: 210.1 ± 22.7 s | No. of flinches % change (a): compared with vehicle control [1, 9]: +22% (a) | No. of flinches mean ± SEM [1, 9]: 182.7 ± 25.9 | Licking time % change (a): compared with vehicle control [1, 10]: −56% (a) | Licking time (seconds) mean ± SEM [1, 10]: 128.2 ± 28.0 s | No. of flinches % change (a): compared with vehicle control [1, 10]: −35% (a) | No. of flinches mean ± SEM [1, 10]: 97.2 ± 16.0 | increase in number of flinches as compared with vehicle controls ([1]; Example 3, lacosamide alone at 10 mg/kg): 22% | decrease in time spent licking ([1]; Example 3, lacosamide alone at 10 mg/kg, p<0.05): 28% | decrease in time spent licking ([1]; Example 3, lacosamide alone at 20 mg/kg, p<0.001): 56% | decrease in number of flinches as compared with vehicle controls ([1]; Example 3, lacosamide alone at 20 mg/kg, p=0.0961): 35% | decrease in time spent licking ([1]; Example 4, lacosamide 10 mg/kg alone, p=0.0538): 30% | Licking time % change (a): compared with vehicle control [1, 11]: −30% (a) | Licking time (seconds) mean ± SEM [1, 11]: 185.2 ± 31.7 s | No. of flinches % change (a): compared with vehicle control [1, 11]: +5% (a) | No. of flinches mean ± SEM [1, 11]: 158.2 ± 15.6 | Licking time % change (a): compared with vehicle control [1, 12]: −4% (a) | Licking time (seconds) mean ± SEM [1, 12]: 168.5 ± 23.9 s | No. of flinches % change (a): compared with vehicle control [1, 12]: −31% (a) | No. of flinches mean ± SEM [1, 12]: 113.9 ± 23.2 | Licking time % change (a): compared with vehicle control [1, 13]: −52% (a) | Licking time (seconds) mean ± SEM [1, 13]: 85.1 ± 19.1 s | No. of flinches % change (a): compared with vehicle control [1, 13]: −48% (a) | No. of flinches mean ± SEM [1, 13]: 85.8 ± 14.4 | decrease in number of flinches as compared with vehicle controls [1, 14]: 31% | effect on time spent licking [1, 14]: no clear effects | decrease in time spent licking ([1]; Example 5, lacosamide alone at 20 mg/kg, p<0.01): 52% | decrease in number of flinches as compared with vehicle controls ([1]; Example 5, lacosamide alone at 20 mg/kg, p<0.05): 48% | mean plasma drug concentration, peak ([2]; Visit 9): 11400 ng/mL | mean plasma drug concentration, trough ([2]; Visit 9): 7700 ng/mL | mean plasma drug concentration, peak ([2]; Visit 10): 9100 ng/mL | mean plasma drug concentration, trough ([2]; Visit 10): 7900 ng/mL | HbA1C level, mean change ([3]; Baseline to Visit 8, lacosamide group): 0.1% | Body weight change during treatment ([3]; lacosamide group): -0.5 kg | subjects who withdrew from the trial due to an AE ([3]; lacosamide group): 5 subjects | subjects with a serious adverse event (SAE) ([3]; lacosamide treatment group, abnormal ECG judged unlikely related to study medication): one | mean duration of exposure to study medication ([3]; lacosamide treatment group, indicating high tolerability): 59.6 days | subjects reporting adverse events associated with the central and peripheral nervous system ([3]; of 60 lacosamide subjects): 38% | subjects who reported at least one treatment-emergent adverse event (TEAE), overall incidence rate [3, 15]: 87% | subjects who withdrew from the trial due to an AE [3, 15]: 8% | weight gain ([3]; trial conclusion): did not induce weight gain | reduction in pain from Baseline to the Maintenance Phase (average daily pain score, 11-point Likert scale), LSMean ([4]; Full Analysis Set (LOCF), oral lacosamide titrated to max 400 mg/day): 3.11 point | proportion of subjects with a decrease of 2 or more points on the Likert pain scale ([4]; compared with the placebo group, all phases of the trial): larger proportion | CGIC and PGIC scores ([4]; end of Maintenance Phase (Visit 10), lacosamide and placebo): Statistically significant differences | difference in LSMean pain score between the two groups ([4]; lacosamide vs placebo, FAS (LOCF), p=0.0390): 0.9

CC12CC3CC(C)(C1)CC(N)(C3)C2 [Memantine]
Licking time % change (a): compared with vehicle control [1, 16]: +25% (a) | Licking time (seconds) mean ± SEM [1, 16]: 219.9 ± 21.8 s | No. of flinches % change (a): compared with vehicle control [1, 16]: −3% (a) | No. of flinches mean ± SEM [1, 16]: 161.4 ± 26.3 | Licking time % change (a): compared with vehicle control [1, 17]: +35% (a) | Licking time (seconds) mean ± SEM [1, 17]: 237.3 ± 18.9 s | No. of flinches % change (a): compared with vehicle control [1, 17]: −20% (a) | No. of flinches mean ± SEM [1, 17]: 132.3 ± 24.6 | increase in time spent licking ([1]; Example 5, memantine alone at 4 mg/kg, p=0.0537): 25% | increase in time spent licking ([1]; Example 5, memantine alone at 8 mg/kg, p<0.05): 35% | number of flinches as compared with vehicle controls ([1]; Example 5, memantine alone at 4 and 8 mg/kg): did not clearly affect

CN1CC[C@]23c4c5ccc(O)c4O[C@H]2[C@@H](O)C=C[C@H]3[C@H]1C5 [Morphine]
Licking time % change (a): compared with vehicle control [1, 18]: −1% (a) | Licking time (seconds) mean ± SEM [1, 18]: 289.3 ± 30.7 s | No. of flinches % change (a): compared with vehicle control [1, 18]: −7% (a) | No. of flinches mean ± SEM [1, 18]: 139.5 ± 25.3 | Licking time % change (a): compared with vehicle control [1, 19]: −20% (a) | Licking time (seconds) mean ± SEM [1, 19]: 234.9 ± 37.3 s | No. of flinches % change (a): compared with vehicle control [1, 19]: −37% (a) | No. of flinches mean ± SEM [1, 19]: 94.3 ± 21.1 | number of flinches and time spent licking as compared with vehicle controls ([1]; Example 3, morphine alone at 2 and 4 mg/kg, effects did not reach statistical significance): dose-dependently decreased
